Test results from patent US20250107523A1, “TRIGGERING DIATOM PROGRAMMED CELL DEATH BY STIMULATING INFOCHEMICAL SIGNALING SYSTEMS” (BATTELLE MEMORIAL INSTITUTE, priority 2023, published 2025).

Key:
model diatoms = details: cited from earlier work
[1] = test system: freshwater diatom Encyonema minutum var. pseudogracialis (Em); assay: Lethality experiments on diatom Em in 96-well plates, live/dead count by Neutral Red vital staining; format: cell-based; details: 10 μM TDD alone; ~24 hours, 20° C.; n=3
Method: Em was maintained and tested at BMI in a modified filter-sterilized CR1-S algal medium with no soil particles so as to improve visualization and counting speed and accuracy.
All experiments were conducted in untreated polystyrene 96-well plates. Total liquid volume added to each well was 200 μL for all assays. At the start of each experiment, a conical tube of diatom Em was split into two and given fresh media (1:1 algae:media), then examined under a microscope to confirm vitality.
Lethality experiments were conducted with 6 different commercial algicides (AlgaeFix™, DINO X, Aquathol® K, Cutrine® Plus, GreenClean® PRO, and Hydrothol® 191 Granular) and two infochemicals (trans,trans-2,4-decadienal [TDD] and cholesterol-3-sulfate [C3S]). Fresh 50 mM or 25 mM stock solutions of each infochemical were prepared in DMSO immediately prior to each experiment. […]
Following incubation, 1.5 μL of filtered Neutral Red (0.8 g in 25 mL DI) for every 100 μL of solution (3 μL for 200 μL) was added to each well. […] A different staff member counted cells in 5 μL from each well using a hemocytometer under a microscope; this second staff member was not told which treatments were in which wells, so as to maintain single-blind data collection. Total cells were counted, along with live/dead characterization via Neutral Red vital cell staining, and time of well count completion.

SMILES | Level leading to programmed-cell-death / cell death (model diatoms) | Single treatment: lethality above negative control [1] [%]
CC(C)CCC[C@@H](C)[C@H]1CC[C@H]2[C@@H]3CC=C4C[C@@H](OS(=O)(=O)O)CC[C@]4(C)[C@H]3CC[C@]12C [C3S, cholesterol-3-sulfate, reference compound] | micromolar levels | –
CCCCC/C=C/C=C/C=O [TDD, trans,trans-2,4-decadienal] | micromolar levels | 6.7
